The source of these data is patent US20250282768A1 (Janssen Pharmaceutica NV, priority 2022, published 2025).

The test has as its system p-IKKa levels in L363 (NIK translocated multiple myeloma) cells. The experiment in a line: Assay 2: Effect of compounds on p-IKKa levels in L363 (NIK translocated multiple myeloma) cells. In kind it is cell-based. The settings on record: Homo sapiens, L-363, 6 h, read-out: Assay 2 IC50 (nM), p-IKKa (Ser 176/180) in BAFF stimulated L363 cells with MG132, 6 h; average if tested more than once. In outline: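 Read-out is p-IKKa Ser176/180 by AlphaLISA SureFire in lysates. Cells were BAFF-primed (250 ng/ml) overnight or left unstimulated, then exposed 6 h at 37 °C to compound with MG132 (10 μM), 0.3% DMSO. IC50 from sigmoidal curve fit, normalized between stimulated and unstimulated controls.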
Take `CN1CCn2nc(Nc3nccc(-c4cccc(-c5cc([C@]6(O)CCN(C)C6=O)on5)n4)n3)cc2C1=O` [Example 467, (R)-2-((4-(6-(5-(3-Hydroxy-1-methyl-2-oxopyrrolidin-3-yl)isoxazol-3-yl)pyridin-2-yl)pyrimidin-2-yl)amino)-5-methyl-6,7-dihydropyrazolo[1,5-a]pyrazin-4(5H)-one]: the IC50 lay in the range of 50 to 500 nM.

On to `CN1CC[C@@](O)(c2cc(-c3cccc(-c4ccnc(Nc5cnc6c(c5)COCC6)n4)n3)no2)C1=O` [Example 468, (R)-3-(3-(6-(2-((7,8-Dihydro-5H-pyrano[4,3-b]pyridin-3-yl)amino)pyrimidin-4-yl)pyridin-2-yl)isoxazol-5-yl)-3-hydroxy-1-methylpyrrolidin-2-one], for which the IC50 is less than 50 nM.

For the molecule `COC1CCC(Nc2nccc(-c3cccc(-c4cc([C@]5(O)CCN(C)C5=O)on4)n3)n2)CC1` (stereo partly drawn) [Example 469, (R)-3-Hydroxy-3-(3-(6-(2-((4-methoxycyclohexyl)amino)pyrimidin-4-yl)pyridin-2-yl)isoxazol-5-yl)-1-methylpyrrolidin-2-one], the IC50 was more than 500 nM.

Take `CCS(=O)(=O)N1CCC(Nc2nccc(-c3cccc(-c4cc([C@]5(O)CCN(C)C5=O)on4)n3)n2)CC1` [Example 470, (R)-3-(3-(6-(2-((1-(Ethylsulfonyl)piperidin-4-yl)amino)pyrimidin-4-yl)pyridin-2-yl)isoxazol-5-yl)-3-hydroxy-1-methylpyrrolidin-2-one]: the IC50 is less than 50 nM.

In the case of `Cc1ncc(C#N)cc1Nc1nccc(-c2cccc(-c3cc([C@]4(O)CCN(C)C4=O)on3)n2)n1` [Example 471, (R)-5-((4-(6-(5-(3-Hydroxy-1-methyl-2-oxopyrrolidin-3-yl)isoxazol-3-yl)pyridin-2-yl)pyrimidin-2-yl)amino)-6-methylnicotinonitrile], the IC50 was less than 50 nM.

Consider `CNC(=O)c1cnc(C)c(Nc2nccc(-c3cccc(-c4cc([C@]5(O)CCN(C)C5=O)on4)n3)n2)c1` [Example 473, (R)-5-((4-(6-(5-(3-Hydroxy-1-methyl-2-oxopyrrolidin-3-yl)isoxazol-3-yl)pyridin-2-yl)pyrimidin-2-yl)amino)-N,6-dimethylnicotinamide], for which the IC50 was 50 to 500 nM.

With `CN1CC[C@@](O)(c2cc(-c3cccc(-c4ccnc(Nc5cnc6c(c5)CCCO6)n4)n3)no2)C1=O` [Example 474, (R)-3-(3-(6-(2-((3,4-Dihydro-2H-pyrano[2,3-b]pyridin-6-yl)amino)pyrimidin-4-yl)pyridin-2-yl)isoxazol-5-yl)-3-hydroxy-1-methylpyrrolidin-2-one], the IC50 was less than 50 nM.

For `COCc1cc(Nc2nccc(-c3cccc(-c4cc([C@]5(O)CCN(C)C5=O)on4)n3)n2)nn1C` [Example 475, (R)-3-Hydroxy-3-(3-(6-(2-((5-(methoxymethyl)-1-methyl-1H-pyrazol-3-yl)amino)pyrimidin-4-yl)pyridin-2-yl)isoxazol-5-yl)-1-methylpyrrolidin-2-one], the IC50 is less than 50 nM.

As to `CN1CC[C@@](O)(c2cc(-c3cccc(-c4ccnc(NC5CCN(S(C)(=O)=O)CC5)n4)n3)no2)C1=O` [Example 476, (R)-3-Hydroxy-1-methyl-3-(3-(6-(2-((1-(methylsulfonyl)piperidin-4-yl)amino)pyrimidin-4-yl)pyridin-2-yl)isoxazol-5-yl)pyrrolidin-2-one], the IC50 was in the range of 50 to 500 nM.
